Reference: US11161846B2, “Substituted pyrazolo[4,3-b]pyridines and their use as GluN2B receptor modulators” (JANSSEN PHARMACEUTICA NV, priority 2019, dated 2021)

The compounds below were run against T1, human GluN1/GluN2B NMDA receptors (Homo sapiens, UniProt Q05586+Q13224) (assay: Calcium flux (FLIPR) assay on cloned human NR1/GluN2B ion channels expressed in mammalian cells, standard assay). Details: glutamate ~EC40 and 10 μM glycine, stable cell line with Tet-On induced expression.
T1 construct: expressed in transfected cells
T1 sequence (Q13224 27-1484, other chains not shown): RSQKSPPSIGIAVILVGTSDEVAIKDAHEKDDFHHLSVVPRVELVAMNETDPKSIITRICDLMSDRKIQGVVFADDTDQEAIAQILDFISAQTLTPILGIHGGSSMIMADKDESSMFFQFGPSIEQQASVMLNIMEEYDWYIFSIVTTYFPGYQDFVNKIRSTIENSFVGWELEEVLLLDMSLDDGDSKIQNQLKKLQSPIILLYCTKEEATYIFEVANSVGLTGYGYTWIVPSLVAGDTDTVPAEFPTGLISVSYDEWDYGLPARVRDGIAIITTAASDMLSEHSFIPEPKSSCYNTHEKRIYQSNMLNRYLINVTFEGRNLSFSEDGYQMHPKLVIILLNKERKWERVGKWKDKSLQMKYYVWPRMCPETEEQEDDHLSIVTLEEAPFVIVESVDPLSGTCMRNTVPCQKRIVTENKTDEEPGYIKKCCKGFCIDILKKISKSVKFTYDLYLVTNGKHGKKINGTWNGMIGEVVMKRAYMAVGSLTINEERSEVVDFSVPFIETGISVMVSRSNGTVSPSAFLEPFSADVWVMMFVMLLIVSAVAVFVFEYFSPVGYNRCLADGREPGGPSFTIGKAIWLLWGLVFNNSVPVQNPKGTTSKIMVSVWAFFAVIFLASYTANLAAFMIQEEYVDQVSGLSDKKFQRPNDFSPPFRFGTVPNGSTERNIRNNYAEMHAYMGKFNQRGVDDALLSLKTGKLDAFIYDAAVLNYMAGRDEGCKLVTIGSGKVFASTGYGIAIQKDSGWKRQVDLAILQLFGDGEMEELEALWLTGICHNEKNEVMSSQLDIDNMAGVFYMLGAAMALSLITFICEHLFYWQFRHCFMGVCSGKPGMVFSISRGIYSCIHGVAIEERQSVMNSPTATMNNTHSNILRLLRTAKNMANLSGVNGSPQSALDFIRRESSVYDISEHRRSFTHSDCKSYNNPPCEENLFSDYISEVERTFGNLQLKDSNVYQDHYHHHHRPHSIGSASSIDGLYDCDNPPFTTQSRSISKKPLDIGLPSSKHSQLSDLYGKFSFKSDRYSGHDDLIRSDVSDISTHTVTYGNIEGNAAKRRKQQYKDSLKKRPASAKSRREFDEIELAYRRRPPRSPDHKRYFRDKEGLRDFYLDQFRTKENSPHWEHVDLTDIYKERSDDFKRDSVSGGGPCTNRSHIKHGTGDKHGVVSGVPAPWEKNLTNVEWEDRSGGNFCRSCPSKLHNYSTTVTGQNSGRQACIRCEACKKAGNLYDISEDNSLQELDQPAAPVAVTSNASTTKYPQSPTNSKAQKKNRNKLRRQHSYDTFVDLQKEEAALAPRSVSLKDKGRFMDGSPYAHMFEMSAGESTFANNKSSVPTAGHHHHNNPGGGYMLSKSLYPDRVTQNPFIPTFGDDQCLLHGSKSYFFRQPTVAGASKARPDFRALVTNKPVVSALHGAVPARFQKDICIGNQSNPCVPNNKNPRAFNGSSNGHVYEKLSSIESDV
Format: cell-based
Procedure: Effects of Test Articles on Cloned Human NR1/GluN2B Ion Channels Expressed in Mammalian Cells
NMDA receptors are ion channels that are highly permeable to Ca^2+ ions, rendering it possible to monitor NMDA receptor function using cell-based calcium flux assay. In this assay, co-agonists glutamate and glycine are added to cells heterologously expressing human GluN1/GluN2B NMDA receptors to initiate cellular Ca^2+ influx. The time course of the changes in intracellular calcium is measured using a fluorescent dye and a FLIPR (Fluorometric Imaging Plate Reader) device.
Twenty four hours before measurements, the expression of the NMDA receptors in the stable cell line is induced with Tet-On inducible system in the presence of a non-selective NMDA receptor blocker. On the day of the experiment, cell culture media is carefully washed and the cells are loaded with Calcium 5 Dye Kit (Molecular Devices) in dye loading buffer containing 137 mM NaCl, 4 mM KCl, 2 mM CaCl2, 0.5 mM MgCl2 (standard assay) or 1.5 mM MgCl2 (HTS assay), 10 mM HEPES and 5 mM D-glucose; pH 7.4. After 1 h incubation at the room temperature, the dye is washed away with the assay buffer (137 mM NaCl (standard assay) or 150 mM (HTS assay), 4 mM KCl (standard assay) or 3 mM (HTS assay), 2 mM CaC2, 0.01 mM EDTA, 10 mM HEPES and 5 mM D-glucose; pH 7.4) In the FLIPR TETRA reader, various concentrations of the test compounds are added to the cells for 5 min while fluorescence is monitored to detect potential agonist activity. Next, co-agonists, glutamate and glycine are added for another 5 minutes. The concentration of glutamate corresponding to ˜EC40 (standard assay) or EC40 (HTS assay) is used to maximize the assay's signal window and ability to detect NMDA receptor antagonists and negative allosteric modulators. A saturating concentration (10 μM) of glycine is also present in the assay. A non-selective NMDA receptor antagonist, (+)MK-801 is used as a positive control for antagonist activity. The fluorescent signal in the presence of test compounds is quantified and normalized to the signal defined by the appropriate control wells.
With FC(F)(F)c1cccc(-c2cnc3cnn(CC4CCCO4)c3c2)c1 (racemic) [Example 111, (RS)-1-(Tetrahydrofuran-2-ylmethyl)-6-[3-(trifluoromethyl)phenyl]pyrazolo[4,3-b]pyridine] the IC50 was 93 nM.
For CC1(Cn2ncc3ncc(-c4ccc(F)c(C(F)F)c4)cc32)COC1 [Example 110, 6-[3-(Difluoromethyl)-4-fluoro-phenyl]-1-[(3-methyloxetan-3-yl)methyl]pyrazolo[4,3-b]pyridine], the IC50 was 2060 nM.
For CN1CC(Cn2ncc3ncc(-c4ccc(F)c(OC(F)F)c4)cc32)CC1=O (racemic) [Example 19, (RS)-4-[[6-[3-(Difluoromethoxy)-4-fluoro-phenyl]pyrazolo[4,3-b]pyridin-1-yl]methyl]-1-methyl-pyrrolidin-2-one], the IC50 was 992 nM.
For CCC(=O)Cn1ncc2ncc(-c3ccc(F)c(C(C)(F)F)c3)cc21 [Example 37, 1-[6-[3-(1,1-Difluoroethyl)-4-fluoro-phenyl]pyrazolo[4,3-b]pyridin-1-yl]butan-2-one], the IC50 was 41 nM.
FC(F)(F)c1cccc(-c2cnc3cnn(CC4CCO4)c3c2)c1 (racemic) [Example 17, (RS)-1-(Oxetan-2-ylmethyl)-6-[3-(trifluoromethyl)phenyl]pyrazolo[4,3-b]pyridine] was tested, and the IC50 was 85 nM.
For Fc1ccc(-c2cnc3cnn(CC(F)(F)C4CC4)c3c2)cc1C(F)F [Example 108, 1-(2-Cyclopropyl-2,2-difluoro-ethyl)-6-[3-(difluoromethyl)-4-fluoro-phenyl]pyrazolo[4,3-b]pyridine], the IC50 was 45 nM.
With O=C(Cn1ncc2ncc(-c3cccc(OC(F)(F)F)c3)cc21)C1CC1 [Example 63, 1-Cyclopropyl-2-[6-[3-(trifluoromethoxy)phenyl]pyrazolo[4,3-b]pyridin-1-yl]ethanone] the IC50 was 31 nM.
Cc1cc(-c2cnc3cnn(CC(=O)C4CC4)c3c2)ccc1F [Example 69, 1-Cyclopropyl-2-[6-(4-fluoro-3-methyl-phenyl)pyrazolo[4,3-b]pyridin-1-yl]ethanone] gave an IC50 of 19 nM.
For CC[S+]([O-])Cn1ncc2ncc(-c3cccc(C(F)(F)F)c3)cc21 (racemic) [Example 81, (RS)-1-(Ethylsulfinylmethyl)-6-[3-(trifluoromethyl)phenyl]pyrazolo[4,3-b]pyridine], the IC50 was 128 nM.
CC(C)C(Cn1ncc2ncc(-c3cccc(C(F)(F)F)c3)cc21)=NO (mixture of isomers) [Example 6, (E/Z)-3-Methyl-1-[6-[3-(trifluoromethyl)phenyl]pyrazolo[4,3-b]pyridin-1-yl]butan-2-one oxime] gave an IC50 of 2480 nM.
In the case of Cc1ccc(-c2cnc3cnn(CC(=O)C4CC4)c3c2)s1 [Example 56, 1-Cyclopropyl-2-[6-(5-methyl-2-thienyl)pyrazolo[4,3-b]pyridin-1-yl]ethanone], the IC50 is reported as 15 nM.
With O=C(Cn1ncc2ncc(-c3ccc(F)c(Cl)c3)cc21)C1CC1 [Example 68, 2-[6-[3-Chloro-4-fluoro-phenyl)pyrazolo[4,3-b]pyridin-1-yl]-1-cyclopropyl-ethanone] the IC50 was 7 nM.
For CN1CCC(Cn2ncc3ncc(-c4ccc(F)c(C(F)F)c4)cc32)C1=O (racemic) [Example 116, (RS)-3-[[6-[3-(Difluoromethyl)-4-fluoro-phenyl]pyrazolo[4,3-b]pyridin-1-yl]methyl]-1-methyl-pyrrolidin-2-one], the IC50 was 303 nM.
Compound Cc1cc(-c2cnc3cnn(CC(=O)C(C)C)c3c2)ccc1F [Example 7, 1-[6-(4-Fluoro-3-methyl-phenyl)pyrazolo[4,3-b]pyridin-1-yl]-3-methyl-butan-2-one] has an IC50 of 21 nM.
With O=C1NC[C@@H](Cn2ncc3ncc(-c4ccc(F)c(C(F)F)c4)cc32)O1 [Example 21, (S)-5-[[6-[3-(Difluoromethyl)-4-fluoro-phenyl]pyrazolo[4,3-b]pyridin-1-yl]methyl]oxazolidin-2-one] the IC50 was 1840 nM.
O=C(Cn1ncc2ncc(-c3cccc(C(F)(F)F)c3F)cc21)C1CC1 [Example 73, 1-Cyclopropyl-2-[6-[2-fluoro-3-(trifluoromethyl)phenyl]pyrazolo[4,3-b]pyridin-1-yl]ethanone] showed an IC50 of 43 nM.
With O=C1O[C@H](Cn2ncc3ncc(-c4ccc(F)c(C(F)F)c4)cc32)CN1C1CC1 [Example 135, (S)-3-Cyclopropyl-5-[[6-[3-(difluoromethyl)-4-fluoro-phenyl]pyrazolo[4,3-b]pyridin-1-yl]methyl]oxazolidin-2-one] the IC50 was > 3000 nM.
With CC(C)C(=O)Cn1ncc2ncc(-c3cccc(C(F)F)c3)cc21 [Example 47, 1-[6-[3-(Difluoromethyl)phenyl]pyrazolo[4,3-b]pyridin-1-yl]-3-methyl-butan-2-one] the IC50 was 23 nM.
For CN1CC(Cn2ncc3ncc(-c4ccc(F)c(OC(F)F)c4)cc32)OC1=O (racemic) [Example 128, (RS)-5-((6-(3-(Difluoromethoxy)-4-fluorophenyl)-1H-pyrazolo[4,3-b]pyridin-1-yl)methyl)-3-methyloxazolidin-2-one], the IC50 was 165 nM.
CC(C)C(=O)Cn1ncc2ncc(-c3cccc(C(F)(F)F)c3F)cc21 [Example 50, 1-[6-[2-Fluoro-3-(trifluoromethyl)phenyl]pyrazolo[4,3-b]pyridin-1-yl]-3-methyl-butan-2-one] was tested, and the IC50 was 76 nM.
In the case of O=C(Cn1ncc2ncc(-c3ccc(F)c(C(F)(F)F)c3)cc21)C1CC1 [Example 74, 1-Cyclopropyl-2-[6-[4-fluoro-3-(trifluoromethyl)phenyl]pyrazolo[4,3-b]pyridin-1-yl]ethanone], the IC50 is reported as 36 nM.
With CCC(O)Cn1nc(F)c2ncc(-c3ccc(F)c(F)c3)cc21 (racemic) [Example 94, (RS)-1-[6-(3,4-Difluorophenyl)-3-fluoro-pyrazolo[4,3-b]pyridin-1-yl]butan-2-ol] the IC50 was 965 nM.
CC(C)C(=O)Cn1ncc2ncc(-c3ccc(F)c(C(F)(F)F)c3)cc21 [Example 51, 1-[6-[4-Fluoro-3-(trifluoromethyl)phenyl]pyrazolo[4,3-b]pyridin-1-yl]-3-methyl-butan-2-one] was tested, and the IC50 was 296 nM.
With CCC(F)(F)Cn1ncc2ncc(-c3ccc(F)c(C(F)F)c3)cc21 [Example 98, 1-(2,2-Difluorobutyl)-6-[3-(difluoromethyl)-4-fluoro-phenyl]pyrazolo[4,3-b]pyridine] the IC50 was 89 nM.
For O=C(Cn1ncc2ncc(-c3ccc(F)c(C(F)F)c3)cc21)c1ncccc1F [Example 140, 2-(6-(3-(Difluoromethyl)-4-fluorophenyl)-1H-pyrazolo[4,3-b]pyridin-1-yl)-1-(3-fluoropyridin-2-yl)ethan-1-one], the IC50 was 191 nM.
Compound ON=C(Cn1ncc2ncc(-c3ccc(F)c(C(F)F)c3)cc21)C1CC1 (mixture of isomers) [Example 107, (E/Z)-1-Cyclopropyl-2-[6-[3-(difluoromethyl)-4-fluoro-phenyl]pyrazolo[4,3-b]pyridin-1-yl]ethanone oxime] has an IC50 of 65 nM.
CC[S+]([O-])Cn1ncc2ncc(-c3ccc(Cl)c(OC(F)F)c3)cc21 (racemic) [Example 87, (RS)-6-[4-Chloro-3-(difluoromethoxy)phenyl]-1-(ethylsulfinylmethyl)pyrazolo[4,3-b]pyridine] showed an IC50 of 109 nM.
Compound O=C(Cn1ncc2ncc(-c3ccc(F)c(C(F)F)c3)cc21)C1CC1 [Example 76, 1-Cyclopropyl-2-[6-[3-(difluoromethyl)-4-fluoro-phenyl]pyrazolo[4,3-b]pyridin-1-yl]ethanone] has an IC50 of 18 nM.
For CN1C(=O)CCC1Cn1ncc2ncc(-c3ccc(F)c(C(F)F)c3)cc21 (racemic) [Example 115, (RS)-5-[[6-[3-(Difluoromethyl)-4-fluoro-phenyl]pyrazolo[4,3-b]pyridin-1-yl]methyl]-1-methyl-pyrrolidin-2-one], the IC50 was > 3000 nM.
For O=C(Cn1ncc2ncc(-c3ccc(F)c(C(F)F)c3)cc21)c1cccs1 [Example 137, 2-[6-[3-(Difluoromethyl)-4-fluoro-phenyl]pyrazolo[4,3-b]pyridin-1-yl]-1-(2-thienyl)ethanone], the IC50 was 36 nM.
For CCS(=O)(=O)Cn1ncc2ncc(-c3ccc(F)c(OC(F)F)c3)cc21 [Example 13, 6-[3-(Difluoromethoxy)-4-fluoro-phenyl]-1-(ethylsulfonylmethyl)pyrazolo[4,3-b]pyridine], the IC50 was 1800 nM.
CC(C)C(=O)Cn1ncc2ncc(-c3ccc(F)c(F)c3F)cc21 [Example 54, 3-Methyl-1-[6-(2,3,4-trifluorophenyl)pyrazolo[4,3-b]pyridin-1-yl]butan-2-one] gave an IC50 of 205 nM.
CN1CC[C@H](Cn2ncc3ncc(-c4ccc(F)c(C(F)F)c4)cc32)C1=O [Example 118, (R)-3-[[6-[3-(Difluoromethyl)-4-fluoro-phenyl]pyrazolo[4,3-b]pyridin-1-yl]methyl]-1-methyl-pyrrolidin-2-one] showed an IC50 of 125 nM.
